For 2 molecules, inhibition results are on record in patent publication EP2832223A1, “HERBICIDAL COMPOSITION” (Ishihara Sangyo Kaisha, Ltd., priority 2012, dated 2013).

Common to all, as to type: in vivo
Test [1] relates to velvetleaf (Abutilon theophrasti Medic.). Nature of the test: Test Example 14: pot test, soil and foliar treatment, visual growth inhibition. As to conditions: soil treatment and foliar treatment, 31st day after treatment, read-out: Growth inhibition rate (%) of velvetleaf Measured value. The source says:
Upland field soil was put into a 1/1,000,000 ha pot, and seeds of velvetleaf (Abutilon theophrasti Medic.) were sown. When the velvetleaf reached 4.0 to 4.3-leaf stage, seeds of velvetleaf were further sown in the same pot assuming conditions such that weeds would later grow. On the next day, predetermined amounts of ONEHOPE NYUZAI (tradename), Click (tradename), Callisto (tradename), Mikado (tradename), a wettable powder containing bicyclopyrone as an active ingredient and Clio (tradename) were diluted with water in an amount corresponding to 300 L/ha and applied for soil treatment and for foliar treatment by a small sprayer.
On the 31 st day after treatment, the state of growth of the velvetleaf was visually observed to determine the growth inhibition rate (%). The growth inhibition rate (%) (measured value) and the growth inhibition rate (%) calculated in the same manner as in the above Test Example 1 are shown in Table 14.

The test system of test [2] is guinea grass (Panicum maximum Jacq.). Nature of the test: Test Example 17: pot test, soil and foliar treatment, visual growth inhibition. As to conditions: Megathyrsus maximus, 29th day after treatment, read-out: Growth inhibition rate (%) of guinea grass Measured value. As for the experimental part: Upland field soil was put into a 1/1,000,000 ha pot, and seeds of guinea grass (Panicum maximum Jacq.) were sown. When the guinea grass reached 5.2 to 6.0-leaf stage, seeds of guinea grass were further sown in the same pot assuming conditions such that weeds would later grow. Three days later, predetermined amounts of ONEHOPE NYUZAI (tradename), Click (tradename) and Spectrum (tradename) were diluted with water in an amount corresponding to 300 L/ha and applied for soil treatment and for foliar treatment by a small sprayer.
On the 29th day after treatment, the state of growth of the guinea grass was visually observed to determine the growth inhibition rate (%). The growth inhibition rate (%) (measured value) and the growth inhibition rate (%) calculated in the same manner as in the above Test Example 1 are shown in Table 17.

Test [3] relates to Japanese millet (Echinochloa utilis Ohwi et Yabuno). The experiment in a line: Test Example 5: pot test, soil treatment, visual growth inhibition. As to conditions: soil treatment, 28th day after treatment, read-out: Growth inhibition rate (%) of Japanese millet Measured value. As for the experimental part:
Upland field soil was put into a 1/300,000 ha pot, and seeds of Japanese millet (Echinochloa utilis Ohwi et Yabuno) were sown. On the next day, predetermined amounts of ONEHOPE NYUZAI (tradename), Click (tradename) and SC formulation containing topramezone as an active ingredient (tradename: Clio, manufactured by BASF) were diluted with water (in an amount corresponding to 1,000 L/ha) and applied for soil treatment by a small sprayer.
On the 28th day after treatment, the state of growth of the Japanese millet was visually observed to determine the growth inhibition rate (%). The growth inhibition rate (%) (measured value) and the growth inhibition rate (%) calculated in the same manner as in the above Test Example 1 are shown in Table 5.

The subject of test [4] is wild oat (Avena fatua L.). The experiment in a line: Test Example 4: pot test, soil treatment, visual growth inhibition. Particulars: soil treatment, 28th day after treatment, read-out: Growth inhibition rate (%) of wild oat Measured value. As to the method: Upland field soil was put into a 1/1,000,000 ha pot, and seeds of wild oat (Avena fatua L.) were sown. On the next day, predetermined amounts of ONEHOPE NYUZAI (tradename), Click (tradename) and a wettable powder containing bicyclopyrone prepared in accordance with a conventional formulation method were diluted with water (in an amount corresponding to 1,000 L/ha) and applied for soil treatment by a small sprayer.
On the 28th day after treatment, the state of growth of the wild oat was visually observed to determine the growth inhibition rate (%). The growth inhibition rate (%) (measured value) and the growth inhibition rate (%) calculated in the same manner as in the above Test Example 1 are shown in Table 4.

Test [5] relates to prickly sida (Sida spinosa L.). Nature of the test: Test Example 10: pot test, soil treatment, visual growth inhibition. Particulars: soil treatment, 28th day after treatment, read-out: Growth inhibition rate (%) of prickly sida Measured value. As to the method: Upland field soil was put into a 1/300,000 ha pot, and seeds of prickly sida (Sida spinosa L.) were sown. On the next day, predetermined amounts of ONEHOPE NYUZAI (tradename), Click (tradename), Spectrum (tradename), Callisto (tradename) and Clio (tradename) were diluted with water (in an amount corresponding to 1,000 L/ha) and applied for soil treatment by a small sprayer.
On the 28th day after treatment, the state of growth of the prickly sida was visually observed to determine the growth inhibition rate (%). The growth inhibition rate (%) (measured value) and the growth inhibition rate (%) calculated in the same manner as in the above Test Example 1 are shown in Table 10.

In test [6] the test system is Japanese millet (Echinochloa utilis Ohwi et Yabuno). Nature of the test: Test Example 9: pot test, soil treatment, visual growth inhibition. As to conditions: soil treatment, 28th day after treatment, read-out: Growth inhibition rate (%) of Japanese millet Measured value. As for the experimental part: Upland field soil was put into a 1/300,000 ha pot, and seeds of Japanese millet (Echinochloa utilis Ohwi et Yabuno) were sown. On the next day, predetermined amounts of ONEHOPE NYUZAI (tradename), Click (tradename), Mikado (tradename) and a wettable powder containing bicyclopyrone prepared in accordance with a conventional formulation method were diluted with water (in an amount corresponding to 1,000 L/ha) and applied for soil treatment by a small sprayer.
On the 28th day after treatment, the state of growth of the Japanese millet was visually observed to determine the growth inhibition rate (%). The growth inhibition rate (%) (measured value) and the growth inhibition rate (%) calculated in the same manner as in the above Test Example 1 are shown in Table 9.

Test [7] deals with guinea grass (Panicum maximum Jacq.). The experiment in a line: Test Example 15: pot test, soil and foliar treatment, visual growth inhibition. Particulars: Megathyrsus maximus, 31st day after treatment, read-out: Growth inhibition rate (%) of guinea grass Measured value. As for the experimental part:
Upland field soil was put into a 1/1,000,000 ha pot, and seeds of guinea grass (Panicum maximum Jacq.) were sown. When the guinea grass reached 5.2 to 6.0-leaf stage, seeds of guinea grass were further sown in the same pot assuming conditions such that weeds would later grow. On the next day, predetermined amounts of ONEHOPE NYUZAI (tradename), Click (tradename), Spectrum (tradename) and Cadou (tradename) were diluted with water in an amount corresponding to 300 L/ha and applied for soil treatment and for foliar treatment by a small sprayer.
On the 31 st day after treatment, the state of growth of the guinea grass was visually observed to determine the growth inhibition rate (%). The growth inhibition rate (%) (measured value) and the growth inhibition rate (%) calculated in the same manner as in the above Test Example 1 are shown in Table 15.

On to `CCNc1nc(Cl)nc(NC(C)(C)C)n1` [Terbuthylazine, N^2-tert-butyl-6-chloro-N^4-ethyl-1,3,5-triazine-2,4-diamine], for which the inhibition (in general, the drop in the measured response relative to a control, in per cent) at 400 g/ha in test [1] (400 g/ha) is 0%; in test [7] (400 g/ha), 5%. Moreover, the inhibition at 1200 g/ha came out at 0% in test [1] (1200 g/ha) and 23% in test [7] (1200 g/ha). Further, the inhibition at 500 g/ha is 0% in test [2] (500 g/ha), 50% in test [3] (500 g/ha) and 15% in test [4] (500 g/ha). In test [5] (200 g/ha), the inhibition at 200 g/ha amounted to 30%. Moreover, the inhibition at 2000 g/ha in test [5] (2000 g/ha) was determined as 80%; in test [6] (2000 g/ha), 65%.
Turning to `COc1cc(OC)nc(NC(=O)NS(=O)(=O)c2ncccc2C(=O)N(C)C)n1` [Nicosulfuron, 2-(4,6-dimethoxypyrimidin-2-ylcarbamoylsulfamoyl)-N,N-dimethylnicotinamide], the inhibition at 20 g/ha worked out at 3% in test [1] (20 g/ha) and 46% in test [7] (20 g/ha). Besides, the inhibition at 60 g/ha in test [1] (60 g/ha) stood at 11%; in test [7] (60 g/ha), 83%. The inhibition at 30 g/ha in test [2] (30 g/ha) was 38%; in test [3] (30 g/ha), 40%; in test [4] (30 g/ha), 30%. In addition, the inhibition at 10 g/ha in test [5] (10 g/ha) was determined as 20%; in test [6] (10 g/ha), 0%. The inhibition at 100 g/ha in test [5] (100 g/ha) was found to be 40%.
